The source made the active and inactive calls.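 Rule for the calls: active = compounds giving half or more protection of infected cells from virus-caused growth loss, again on retest; inactive = the rest.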
System: CEM cells HIV-1 protection, formazan growth assay
Experiment: NCI AIDS Antiviral Assay
Settings: for IC50: measured here: growth of uninfected CEM cells
Outline: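 Soluble formazan readout of cell growth; CEM cells ± HIV-1; 5 drug concs. ≥50% protection → retest; ≥50% again = moderately active; reproducible 100% = confirmed active.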

Row | SMILES | EC50 | IC50 | outcome
1 | O.O.O=C(O)C(=O)O.O=C(O)C(=O)O.[Cu] | > 200 µM | 20.9 µM | 
2 | O=c1nc(Nc2cccc(Cl)c2)oc2cc(Cl)oc(=O)c12 | > 79.4 µM | 11.5 µM | 
3 | O=c1cc(O)c2ccccc2[nH]1 | > 200 µM | > 200 µM | 
4 | O=C(COc1ccc(/C=C/C(=O)c2ccc(Cl)cc2)cc1)Nc1c(Cl)cccc1Cl | > 40.7 µM | > 40.7 µM | 
5 | C=C(CN(C)C)C(=O)c1ccc(OC2OC(COC(C)=O)C(OC(C)=O)C(OC(C)=O)C2OC(C)=O)cc1 (stereo not given) | > 200 µM | 3.24 µM | 
6 | C=C1OC(=O)/C(=C/CCCCCCCCCCCCCCCCC)[C@@H]1O | > 27.5 µM | > 27.5 µM | 
7 | Cc1ccccc1C1CC(=O)CC(c2ccccc2C)C12C(=O)NC(=O)NC2=O (stereo not given) | > 200 µM | 105 µM | 
8 | CC(=O)OC1C[N+]2(CCc3ccccc3)CCC1CC2 (stereo not given) | > 708 µM | > 708 µM | 
9 | O=C1c2ccccc2CC12Cc1ccc3c(c1C2=O)CCCC3 (stereo not given) | > 200 µM | > 200 µM | 
10 | CCCCCCCCCN=C(N)CSSCC(N)=NCCCCCCCCC | > 200 µM | 19.5 µM | 
11 | CCOC(=O)C(Cc1ccccc1)NC(=O)c1[nH]cnc1/N=N/N(C)C (stereo not given) | > 692 µM | 355 µM | 
12 | CCOC(=O)C(C(=O)OCC)=C1SC(=Nc2ccccc2)C(=Nc2ccccc2)N1c1ccccc1 | > 200 µM | 70.8 µM | 
13 | O=c1[nH]c(=O)n(C2OC(CO)CC2F)cc1F (stereo not given) | > 200 µM | > 200 µM | 
14 | O=[N+]([O-])c1ccc(Sc2c3ccccc3nc3ccccc23)nc1 | > 200 µM | 5.25 µM | 
15 | CC1=N/C(=C\c2cccc(Cl)c2)C(=O)O1 | > 85.1 µM | > 85.1 µM | 
16 | CS(=O)(=O)OCCCS(=O)(=O)O | > 200 µM | > 200 µM | 
17 | COc1cc2cc(C(=O)N3CC(CCl)c4c3cc(N)c3ccccc43)[nH]c2c(OC)c1OC (stereo not given) | > 0.2 µM | 0.000832 µM | 
18 | COC(=O)C(Cc1nc2ccc(Cl)cc2[nH]c1=O)/C(=N/NC(N)=O)C(=O)Nc1ccc(Cl)cc1 (stereo not given) | > 70.8 µM | > 70.8 µM | 
19 | CCOC(C)C(=O)OC[C@@H](C(=O)OC1C[C@@H]2[C@@H]3O[C@@H]3[C@H](C1)[N+]2(C)C)c1ccccc1 (stereo not given in full) | > 200 µM | > 200 µM | 
20 | CN(C)Cc1cc(C(=O)/C=C/c2ccc(Cl)cc2Cl)cc(CN(C)C)c1O | > 200 µM | 3.8 µM | 
21 | CN(C)CCCN1C(=S)N(CCCN(C)C)c2c3ccccc3nc3c([N+](=O)[O-])ccc1c23 | 0.407 µM | 1.07 µM | 
22 | Cc1cccc2[nH]c3cc(O)cc(O)c3c(=O)c12 | > 200 µM | 10.5 µM | 
23 | C[N+](C)(N)c1nc(N)c(C#N)c(C#N)c1C#N | > 200 µM | 33.1 µM | 

Row | SMILES | EC50 | IC50 | outcome
24 | O=C(CO)CC(=O)C(=O)Nc1nc([N+](=O)[O-])cs1 | > 132 µM | > 132 µM | 
25 | CC(C)C1CC[C@@H](C)C[C@@]1(O)CC(N)=O (stereo not given in full) |  |  | inactive
26 | O=C1c2cc(O)cc(O)c2C(=O)c2c(O)cc(CO)cc21 |  |  | inactive
27 | S=c1ncc2c([nH]1)C1c3ccccc3C2c2ccccc21 | > 200 µM | 120 µM | 
28 | COC1CC(N)C(O)C(CN=[N+]=[N-])O1 (stereo not given) |  |  | inactive
29 | Cc1ccc2c(c1S)C(=O)c1ccccc1C2=O | > 117 µM | 29.5 µM | 
30 | O=C(NC(C(F)(F)F)(C(F)(F)F)P(=O)(c1ccccc1)c1ccccc1)C(C(F)(F)F)C(F)(F)F | > 200 µM | 11.7 µM | 
31 | CN1COCN=C1NC#N | > 631 µM | > 631 µM | 
32 | CCOC(=O)c1ccc(CSc2ccc(OC)cc2)c([N+](=O)[O-])c1 | > 102 µM | 19.1 µM | 
33 | CC1=C(/C=C/C(C)=C/C=C/C(C)=C/C=C/C=C(C)/C=C/C=C(C)/C=C/C2=C(C)C(=O)C(O)CC2(C)C)C(C)(C)CC(O)C1=O (stereo not given) | > 43.7 µM | > 43.7 µM | 
34 | O=C(O)c1ccc2c(c1)S(=O)(=O)NC2=O | > 1100 µM | > 1100 µM | 
35 | COCc1c(C(=O)NCCO)[n+](=O)c2ccccc2n1[O-] | > 87.1 µM | > 87.1 µM | 
36 | COc1nc2c(c(=O)n1C)N[C@@H]1[C@@H](O)[C@H](O)CO[C@@H]1N2 | > 200 µM | > 200 µM | 
37 | Cc1cc(=O)oc2cc(O)cc(OCc3ccccc3)c12 | > 107 µM | 41.7 µM | 
38 | Cc1ccc(CN2CC(=O)N3Cc4ccccc4CN3C(=O)C2)cc1 |  |  | inactive
39 | Oc1ccccc1/C=N/N1C(=S)N(C23CC4CC(CC(C4)C2)C3)C(=Nc2ccccc2)C1=Nc1ccccc1 | > 200 µM | 85.1 µM | 
40 | Cc1nc2ccccc2c(C(=O)NO)[n+]1[O-] | > 200 µM | > 200 µM | 
41 | O=C1c2c(ccc3c2CCCC3)CC12Cc1ccccc1C2 | > 200 µM | 22.4 µM | 
42 | COc1cc(C(C#N)NNC(=O)c2ccccc2O)ccc1O (stereo not given) | > 5.75 µM | 0.427 µM | 
43 | O=C1C(=O)C(c2ccccc2)S(=O)(=O)C1c1ccccc1 (stereo not given) |  |  | inactive
44 | O=c1[nH]c2c(nc1NC13CC4CC(CC(C4)C1)C3)c(=O)oc1ccccc12 | > 2 µM | > 2 µM | 
45 | COC(=O)CC(=O)Nc1sccc1S(=O)(=O)c1ccccc1 | > 200 µM | 102 µM | 
46 | CCOC(=O)C1CCn2c(nc3c(=O)n(C)c(=O)n(C)c32)S1 (stereo not given) |  |  | inactive

Row | SMILES | EC50 | IC50 | outcome
47 | CCOC(=O)/C=C/c1ccc2c(c1)OC(c1ccc(O)c(OC)c1)C(CO)O2 (stereo not given) | > 129 µM | 24.5 µM | 
48 | CCOC/N=C(/N)NC#N | > 631 µM | > 631 µM | 
49 | O=c1nc(NC(c2ccccc2)(c2ccccc2)c2ccccc2)ccn1CCNCCn1ccc(NC(c2ccccc2)(c2ccccc2)c2ccccc2)nc1=O | > 9.33 µM | > 9.33 µM | 
50 | CCN(CC)P(=O)(c1ccc2c(c1)OCCOCCOCCOCCO2)N(CC)CC | > 200 µM | > 200 µM | 
51 | CCOc1ccc(NC(=S)/N=C/C(C(=O)Nc2ccccc2C)=C(\C)O)cc1 | > 200 µM | > 200 µM | 
52 | CC(=O)Oc1ccccc1-c1cc2ccccc2oc1=O | > 200 µM | > 100 µM | 
53 | C/C(=N\O)C(CN(C)C)C(c1ccccc1)c1c(O)c2ccccc2oc1=O (stereo not given) | > 32.4 µM | 21.9 µM | 
54 | c1csc(-c2nn3c(C45CC6CC(CC(C6)C4)C5)nnc3s2)c1 | > 200 µM | > 200 µM | 
55 | CCCCCCCCCCCCCC/C(C(=O)OC)=C(/O)C(=O)OCC | > 91.2 µM | 28.8 µM | 
56 | O=S(=O)(c1cc(Cl)ccc1Cl)N1CCN(c2ccc(Cl)c(Cl)c2)CC1 | > 200 µM | > 200 µM | 
57 | C=CCCCN1CCCCC1=S | > 251 µM | > 251 µM | 
58 | COC(=O)C1(O)c2ccccc2N=C2C(=O)c3ccccc3N21 (stereo not given) | > 200 µM | > 200 µM | 
59 | O=C1/C(=C/c2ccccc2)CSC/C1=C\c1ccccc1 | > 200 µM | 2.4 µM | 
60 | CC1=NN2C(=N)/C(=C/c3ccco3)C(=O)N=C2S1 | > 200 µM | > 200 µM | 
61 | COc1cc(SSc2ccc(N)c(OC)c2)ccc1N | > 200 µM | 26.3 µM | 
62 | OCC1OC(n2cnc3cccnc32)CC1O (stereo not given) | > 200 µM | > 200 µM | 
63 | C(=Nc1ccc(-c2cc(-c3ccccc3)nc3ccc4ccccc4c23)cc1)c1ccccc1 | > 200 µM | 31.6 µM | 
64 | COc1cc2c(cc1Oc1ccc(OC)c3c1CC1c4c(cc(OC)c(OC)c4-3)CCN1C)CC1c3c(cc(OC)c(OC)c3-2)CCN1C (stereo not given) |  |  | inactive
65 | C[P+]1(CCc2ccc(Cl)cc2)CC=CC1 |  |  | inactive
66 | CCC(c1ccc(N(C)C)cc1)C1NC(=S)NC1=O (stereo not given) | > 200 µM | 25.7 µM | 
67 | CC(=O)n1[nH]c(=O)n(-c2ccccc2)c1=O | > 200 µM | > 200 µM | 
68 | N#C/C(=C\c1ccco1)C(N)=O | > 200 µM | > 200 µM | 
69 | C=CCN1C(=O)CS/C1=N\NC(=O)Cc1nc2ccccc2[nH]1 | > 275 µM | > 275 µM | 

Row | SMILES | EC50 | IC50 | outcome
70 | C/C(CC(=O)Nc1ccc([N+](=O)[O-])cc1)=N/N=C(N)N | > 67.6 µM | > 67.6 µM | 
71 | Nc1nc(N)c(N=O)c(=O)[nH]1.[Cd] | > 200 µM | 1.74 µM | 
72 | CSc1n[nH]c(NC(=O)c2ccc(Cl)cc2)n1 | > 19.5 µM | > 19.5 µM | 
73 | CCOC(=O)C(NC(=O)c1cccc(Cl)c1)(Nc1cccc(C)c1)C(F)(F)F (stereo not given) | > 200 µM | 17.4 µM | 
74 | C=CCOc1ccc(/C(N=Nc2ccccc2)=N/NC(=O)c2ccccc2)cc1OC | > 200 µM | 107 µM | 
75 | COc1ccc2c(c1OC)CN(C)CCc1cc3c(c(OC)c1C(=O)C2)OCO3 |  |  | inactive
76 | O=C(NC(CCCCN1C(=O)c2ccccc2C1=O)P(=O)(Oc1ccccc1)Oc1ccccc1)OCc1ccccc1 (stereo not given) | > 200 µM | 95.5 µM | 
77 | CCOC(=O)/C=C/c1cccc(OC)c1 | > 158 µM | > 158 µM | 
78 | COc1ccc(C2CC(=O)CC(c3ccc(OC)cc3)C23C(=O)CCCC3=O)cc1 (stereo not given) | > 200 µM | > 200 µM | 
79 | Cc1cc(-c2ccccc2)nc(Nc2nc3ccccc3o2)n1 | > 61.7 µM | > 61.7 µM | 
80 | CN/N=C(\C)CC(=O)Nc1cccc(Cl)c1C | > 14.8 µM | > 14.8 µM | 
81 | CCOC(=O)c1c(SCCN2CCOCC2)n(-c2ccccc2)c(=S)n(-c2ccccc2)c1=O | > 27.5 µM | > 27.5 µM | 
82 | COc1cc(C2c3cccc4cccc(c34)C3CCC(=O)N32)cc(OC)c1O (stereo not given) | > 50.1 µM | 1.32 µM | 
83 | O=C(c1ccc(Cl)cc1)c1ccc(OCCCCCCCCCCOc2ccc(C(=O)c3ccc(Cl)cc3)cc2)cc1 | > 16.6 µM | > 16.6 µM | 
84 | O=C1c2ccccc2C(=O)N1N1C(=O)c2ccccc2C1=O | > 200 µM | > 200 µM | 
85 | CC(=O)CCCC(CC(C)O)[Si](C)(C)C (stereo not given) | > 1070 µM | 562 µM | 
86 | CC1CC(N)=C(C#N)C1(C#N)C#N (stereo not given) | > 200 µM | 138 µM | 
87 | O=C(c1cccc(Cl)c1)c1c(O)c2ccccc2oc1=O |  |  | inactive
88 | Nc1nc(Cl)cc(NCC2(CO)CCC2)n1 | > 200 µM | 191 µM | 
89 | O=S(=O)(O)c1cccc(N=Nc2cc(S(=O)(=O)O)c3cccnc3c2O)c1 | > 550 µM | > 550 µM | 
90 | Cc1c(CN2CCN(C)CC2)c(O)c2c(=O)c3c(O)c(CN4CCN(C)CC4)c(O)c4c5c(O)c(CN6CCN(C)CC6)c(O)c6c(=O)c7c(O)c(CN8CCN(C)CC8)c(C)c8c1c2c(c34)c(c78)c65 | > 10.2 µM | > 10.2 µM | 
